In paper PMC9982066, “Inhibition of Ehrlichia chaffeensis infection by cell-permeable macrocyclic peptides that bind type IV secretion effector Etf-1” (PNAS Nexus, 2023):
Like-named read-outs stand apart in the source and are kept apart here. Starred links: 1 amine or outer side, 2 acyl side, 3 side chain; linkers in the order of their positions; H or OH if unused. Positions of bridges follow the written chain, without caps; N, C: chain ends. Non-standard residues stand in square brackets, D forms with d. Residues, ends and D or L forms follow the SMILES beside them. Trimesoyl = O=C(c1cc(C(=O)[*:2])cc(C(=O)[*:3])c1)[*:1]; Phe(4-Cl) = N[C@@H](Cc1ccc(Cl)cc1)C(=O)O; 2Nal = N[C@@H](Cc1ccc2ccccc2c1)C(=O)O; d2Nal = N[C@H](Cc1ccc2ccccc2c1)C(=O)O; Phg = N[C@H](C(=O)O)c1ccccc1; d(β3hA) = C[C@@H](N)CC(=O)O; Dap = NC[C@H](N)C(=O)O

Assays:
Etf-1 [1] = target: T1, Etf-1 (Ehrlichia chaffeensis, UniProt Q2GG12); assay: FP assay of Etf-1 binding with FAM-labeled peptides
Procedure: The peptides were labeled at their C-terminus with carboxyfluorescein (FAM) through a β-Ala-β-Ala-Lys linker and evaluated for binding to Etf-1 by using a fluorescence polarization (FP) assay. […] This outcome is not unexpected, as screening OBOC libraries is often complicated by false positives, due to the presence of high ligand densities on library beads ([28]).
(§1) Fig. 2. Determination of binding affinity of Etf-1-binding peptides by FP assay. […] FAM-labeled peptide (50 nM) was incubated with serially diluted Etf-1 (starting from 25–30 μM in PBS, pH 7.4, supplemented with 5 mM DTT and 0.01% Triton X-100) for 1 h at RT. FP values were measured on a Tecan Infinite M1000 Pro plate reader. Titration curves (n ≥ 3) were fitted using GraphPad Prism and analyzed with TraceDrawer to calculate dissociation constants (KD). […] Data were analyzed using GraphPad Prism and fitted to a four-parameter variable slope equation to determine IC50 values.
Etf-1 and macrocyclic peptides were serially diluted in PBS supplemented with 5 mM DTT and 0.01% Triton X-100 (v/v). FAM-labeled peptides (50 nM) were prepared from a 10-μM DMSO stock and incubated with serially diluted Etf-1 for 1 h at room temperature (RT). Twenty microliters of the solutions were transferred to a black 384-well plate (Greiner Bio-One) and FP values were measured on a Tecan Infinite M1000 Pro plate reader with excitation and emission wavelengths at 470 and 535 nm, respectively. Titration curves (n ≥ 3) were fitted using GraphPad Prism v8.0 (GraphPad, La Jolla, CA, USA), and analyzed with TraceDrawer software v1.8 (Ridgeview Instruments AB, Uppsala, Sweden) to calculate the dissociation constant (KD, in nM).

E. chaffeensis [2] = assay: E. chaffeensis infection of THP-1 cells, qPCR of 16S rRNA gene normalized to human actin; type: cell-based, Ehrlichia chaffeensis; settings: for inhibition of E. chaffeensis infection: 10 μM, 2 days, vs DMSO control
E. chaffeensis [3] = assay: morphological examination of E. chaffeensis infection of THP-1 cells by Diff-Quik staining; settings: for E. chaffeensis infection (numbers and sizes of morulae): THP-1 cells, Fig. S4 (with Figs. 5, S3)
Etf-1-GFP = assay: mitochondrial localization of ectopically expressed Etf-1-GFP in RF/6A cells; type: cell-based, Ehrlichia chaffeensis; settings: 10 μM, 2 days
Procedure: For mitochondria localization analysis, RF/6A cells were seeded onto a cover glass in a 12-well plate for 3 h, then infected with E. chaffeensis at ∼30 MOI. Alternatively, cells were transfected with Etf-1-GFP or Etf-1-DsRed plasmids using Fugene HD (Promega) or by electroporation at 100 V and 1,000 µF using the Gene Pulser Xcell System (BioRad) according to the manufacturers’ instructions ([16]). […] To examine the roles of macrocyclic peptides on Etf-1 localization on E. chaffeensis inclusions, infected RF/6A cells were treated with 10 μM peptides at 3 h pi for 2 days. At 2 days pi or pt, cells were washed 3 times with PBS, then fixed in 4% PFA for 20 min. Native Etf-1 and mitochondria marker cytochrome C proteins were labeled with rabbit anti-Etf-1 IgG and mouse anti-cytochrome C, then with AF488-conjugated goat anti-rabbit and anti-mouse secondary antibodies in PGS (PBS with 0.1% gelatin and 0.1% saponin) for 1 h each at RT. Host-cell and Ehrlichial DNAs were stained with 300 nM DAPI, and fluorescence with differential interference contrast images were observed and captured with a DeltaVision deconvolution microscope (Applied Precision, Issaquah, WA, USA). Percentages of Etf-1 protein colocalization with macrocyclic peptides or E. chaffeensis inclusions were quantified by counting 10–20 cells per group from three independent experiments.

BECN1 binding to Etf-1 = assay: streptavidin magnetic beads pull-down of BECN1 with biotin-Etf-1, Western blot; type: biochemical; settings: 10 µM peptide; for BECN1/Etf-1 Ratio: band intensities, DMSO control set as 1, Fig. 8B
Procedure: Fig. 8.
Streptavidin magnetic beads (15 µL, Pierce, Rockford, IL, USA) were washed with 1 mL of Bind/Wash buffer (25 mM Tris, pH 7.4; 250 mM NaCl, 0.1% Tween 20), and incubated with 0.15 µg ([…] final concentration) of biotinylated full-length Etf-1 protein in bind/wash buffer at 4°C overnight with end-to-end rotation. Beads were washed three times with Bind/Wash buffer, then incubated with Etf-1-binding macrocyclic peptides (10 µM) or DMSO control in Bind/Wash buffer at room temperature for 2 h. […] Beads were washed three times, and proteins were eluted from the beads with 50 µL of 2× SDS-sample buffer. […] Reacting bands were visualized with enhanced chemiluminescence by incubating the membrane with LumiGLO chemiluminescent reagent (Thermo Fisher Scientific). Images were captured by Amersham Imager 680 (GE Healthcare) and densitometry analysis was performed using ImagQuaNT (GE Healthcare). In each specimen, band intensities were normalized against those of actin as the loading control, and the ratios of the treatment group to the control group were calculated with the value in the control groups arbitrarily set as 1.0.

Etf-1 [4] = target: T1, Etf-1; assay: biochemical; type: binding; settings: for competition for Etf-1 binding: unlabeled competitor peptides vs FAM-B7-133-8
Procedure: as §1
Serial dilutions of competitor peptide (0-20 μM) were prepared from DMSO stock solutions into PBS containing 0.01% Triton-X100 and 2 mM TCEP and added to aliquots of the equilibrated Etf-1/probe solution. After incubation for 1 h in the dark and with gentle mixing, 20 μL of each sample was transferred into 384-well black-on-black microplates and FP was measured using a TECAN Infinite M1000 plate reader. Data were analyzed using GraphPad PRISM ver. 8.0 and fit to a four-parameter variable slope equation to determine IC50 values. IC50 values reported are the mean ± SD of n = 2–4 independent experiments.

[5] = LDH release assay (plasma membrane damage); type: cell-based; settings: Fig. S2
Procedure: LDH release assay (Promega) was performed to assess the level of plasma membrane damage in a cell population by these compounds. […] Control wells contained 10 μL of lysis buffer, cell-free complete growth media, or positive LDH control. Following incubation at 37°C and 5% CO2 for 45 to 75 min, the culture was centrifuged and 50 μL of the growth medium was withdrawn from each well, transferred to a clear 96-well plate, mixed with 50 μL of LDH substrate mixture, and incubated at RT for 30 min with gentle mixing. Finally, 50 μL of 1 N HCl was added to each well, and the absorbances at 490 and 680 nm were immediately measured on a Tecan Infinite M1000 plate reader. Relative membrane leakage was calculated and plotted using GraphPad Prism v8.0.

[6] = serum stability assay (UPLC); type: in vitro ADME; settings: 25% (v/v) in DPBS; 25% human serum, 37°C, after 22 h; read-out: degradation
Procedure: In comparison, the linear peptide Tat (cell-permeable peptide of HIV) was completely degraded within the first 120 min of incubation (Fig. 4B).
Human serum was diluted to 25% (v/v) in sterile DPBS and equilibrated at 37°C for 15 min. Peptides were added to the diluted serum to a final concentration of 20 μM and incubated at 37°C with gentle mixing. At designated time points, 30 μL aliquots were withdrawn and mixed with 30 μL of 15% trichloroacetic acid in MeOH (w/v) and 30 μL of MeCN and stored at 4°C overnight to completely precipitate the serum proteins. Next, each aliquot was centrifuged (15,000g, 5 min, 4°C) and 14 μL of the supernatant was injected in an UPLC equipped with an analytical Waters Acquity UPLC BEH C18 column (1.7 μm, 2.1 mm I.D., 100 mm length) and an inline UV-Vis detector and a single quadrupole mass detector. The column was eluted with a linear gradient of 20–50% MeCN in ddH2O containing 0.1% TFA. A UV/Vis detector at 214 nm and the mass spec quantifying the ion counts corresponding to the [M + 3H]^3+ ion of the analytes were used to analyze the samples. The area under the peak of interest was obtained by integration, normalized to that of the peptide at t = 0, and plotted as a function of the incubation time to determine the serum half-life of the peptide.

THP-1 cells = assay: CellTiter-Glo luminescent cell viability assay; settings: 20 μM, 2-day treatment
Description: THP-1 (human promyelocytic leukemia) cells are widely used as E. chaffeensis infection studies of human monocytes in vitro, since initial characterization of infection ([31]).
Fig. 4. Cytotoxicity and proteolytic stability of Etf-1-binding peptides. (A) Effect of Etf-1-binding peptides on the viability of THP-1 cells as determined by CellTiter-Glo luminescent assay. Relative luminescence was plotted as function of the peptide concentration, with the cell viability of DMSO control group set as 100%. (B) Plot of the amount of intact peptide remaining as a function of the incubation time in 25% human serum. All values are normalized to that of peptide at time 0 (100%).
Cytotoxicity of Etf-1-binding peptides was examined by CellTiter-Glo luminescent cell viability assay (Promega, Madison, WI, USA). THP-1 cells were seeded in a transparent 96-well plate at a density of 5 × 10^3 cells/well (100 μL in each well) in RPMI-1640 containing 10% FBS and 1% antibiotics and cultured overnight. Etf-1-binding peptides were serially diluted in DPBS from a DMSO stock and added to the cells with the final concentration of 0–25 μM and a constant final concentration of 0.5% DMSO (v/v). After incubation at 37°C with 5% CO2 for 46 h, the plate was removed and pre-equilibrated to RT before the addition of 100 μL of the CellTiter-Glo 2.0 reagent to each well. The plate was incubated for 15 min on a rotary shaker in the dark, and the luminescence was detected (1-s integration time) on a Tecan Infinite M1000 Pro microplate reader. Relative luminescence was plotted as function of the peptide concentration, with the cell viability of DMSO control group set as 100%.

T1 sequence (Q2GG12 entry or part of it): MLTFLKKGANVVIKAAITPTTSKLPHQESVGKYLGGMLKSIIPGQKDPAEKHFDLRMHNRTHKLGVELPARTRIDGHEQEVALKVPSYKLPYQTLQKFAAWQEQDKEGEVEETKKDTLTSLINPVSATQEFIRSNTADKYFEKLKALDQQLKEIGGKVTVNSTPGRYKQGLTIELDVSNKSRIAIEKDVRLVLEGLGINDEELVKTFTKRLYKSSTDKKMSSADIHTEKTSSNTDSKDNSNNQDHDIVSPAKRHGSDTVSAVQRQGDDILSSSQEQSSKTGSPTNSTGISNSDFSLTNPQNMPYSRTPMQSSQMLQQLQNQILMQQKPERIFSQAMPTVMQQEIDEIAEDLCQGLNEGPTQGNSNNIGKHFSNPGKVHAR

Row | SMILES | Kd (Etf-1 [1]) [nM] | inhibition of E. chaffeensis infection (E. chaffeensis [2]) | E. chaffeensis infection (numbers and sizes of morulae) (E. chaffeensis [3]) | effect on mitochondrial localization of Etf-1-GFP (Etf-1-GFP) | BECN1/Etf-1 Ratio (BECN1 binding to Etf-1) | IC50 (Etf-1 [4]) [nM] | competition for Etf-1 binding (Etf-1 [4]) | release of lactate dehydrogenase (LDH) [5] | metabolised at 22 h, 20 µM [6] [%] | dose dependence of inhibition of E. chaffeensis infection (E. chaffeensis [2]; 1, 5, and 10 μM) | inhibition of E. chaffeensis infection compared with peptide B7 (or B7-16) (E. chaffeensis [2]; THP-1 cells) | cytotoxicity (cell lysis in treated groups) (E. chaffeensis [3]) | disruption of BECN1 binding to Etf-1 (BECN1 binding to Etf-1; compared to DMSO control) | cell viability (THP-1 cells) | cytotoxicity (cell lysis in treated groups) (E. chaffeensis [3]; THP-1 host cells)
1 | C[C@H]1NC(=O)[C@H](CO)NC(=O)[C@@H](CCC(=O)O)NC(=O)c2cc3cc(c2)C(=O)NC[C@H](NC(=O)[C@H](CO)NC(=O)[C@H](Cc2c[nH]cn2)NC(=O)[C@@H](Cc2ccccc2)NC1=O)C(=O)N[C@H](Cc1ccccc1)C(=O)N[C@@H](Cc1ccc2ccccc2c1)C(=O)N[C@@H](CCCNC(=N)N)C(=O)N[C@H](CCCNC(=N)N)C(=O)N[C@@H](CCCNC(=N)N)C(=O)N[C@H](CCCNC(=N)N)C(=O)N[C@H](C(N)=O)CNC3=O [Peptide C17, TMA-glu-Ser-ala-phe-His-Ser-Dap-phe-Nal-Arg-arg-Arg-arg-Dap] ([dE]S[dA][dF]HS[Dap][dF][2Nal]R[dR]R[dR][Dap]-NH2; linker N-7-14 via Trimesoyl) | > 25000 | no effect | did not inhibit | neither peptide B7 nor C17 affected mitochondrial localization | 1.17 |  |  |  |  |  |  |  |  |  | 
2 | CC(C)C[C@H]1NC(=O)[C@H]2CCCN2C(=O)C[C@@H](C)NC(=O)[C@H](CCC(N)=O)NC(=O)[C@@H](Cc2ccc3ccccc3c2)NC(=O)[C@H](Cc2ccc(O)cc2)NC(=O)c2cc3cc(c2)C(=O)NC[C@H](NC1=O)C(=O)N[C@@H](Cc1ccc(Cl)cc1)C(=O)N[C@H](Cc1ccc2ccccc2c1)C(=O)N[C@H](CCCNC(=N)N)C(=O)N[C@@H](CCCNC(=N)N)C(=O)N[C@H](CCCNC(=N)N)C(=O)N[C@@H](CCCNC(=N)N)C(=O)N[C@H](C(N)=O)CNC3=O [Peptide B7-133-8, TMA-Tyr-nal-Gln-homoAla-pro-leu-Dap-4-ClPhe-nal-arg-Arg-arg-Arg-Dap] (Y[d2Nal]Q[d(β3hA)][dP][dL][Dap][Phe(4-Cl)][d2Nal][dR]R[dR]R[Dap]-NH2; linker N-7-14 via Trimesoyl) |  | significantly inhibited | significantly inhibited |  | 0.19 | 110 ± 20 | Competition for Etf-1 binding was observed | significant release of lactate dehydrogenase | < 20 | dose-dependent manner | significantly more potent inhibition | certain degrees of cytotoxicity | disrupted BECN1 binding to Etf-1 |  | 
3 | CC(C)C[C@H]1NC(=O)[C@H](c2ccccc2)NC(=O)[C@H](CO)NC(=O)[C@@H](Cc2ccc3ccccc3c2)NC(=O)[C@@H](CC(N)=O)NC(=O)[C@H](Cc2ccc(O)cc2)NC(=O)c2cc3cc(c2)C(=O)NC[C@H](NC(=O)[C@@H](CC(C)C)NC1=O)C(=O)N[C@@H](Cc1ccc(Cl)cc1)C(=O)N[C@H](Cc1ccc2ccccc2c1)C(=O)N[C@H](CCCNC(=N)N)C(=O)N[C@@H](CCCNC(=N)N)C(=O)N[C@H](CCCNC(=N)N)C(=O)N[C@@H](CCCNC(=N)N)C(=O)N[C@H](C(N)=O)CNC3=O [Peptide B7-131-1, TMA-Tyr-asn-nal-Ser-Phg-leu-leu-Dap-4-ClPhe-nal-arg-Arg-arg-Arg-Dap] (Y[dN][d2Nal]S[Phg][dL][dL][Dap][Phe(4-Cl)][d2Nal][dR]R[dR]R[Dap]-NH2; linker N-8-15 via Trimesoyl) |  | significantly inhibited | significantly inhibited |  |  |  | Competition for Etf-1 binding was observed | significant release of lactate dehydrogenase | < 20 |  |  |  |  | greater loss of cell viability | certain degrees of cytotoxicity
